Data published in patent US20080207522A1, “Antimicrobial Peptides” (priority 2004, published 2008).
Read-outs that look alike come from different tables or passages of the source. Ends that are not written are not given here.

How the values were obtained:
[1] = system: Salmonella enterica ssp. Typhimurium; conditions: for MIC S. typhimurium: ssp. Typhimurium; for MIC S. Typhim.: Table 6
Experimental: (§1) Minimal inhibitory concentration (MIC) determination. The MICs of the peptides were measured using a modified broth microdilution method in Mueller Hinton (MH) medium. Wu et al., J. Biol. Chem. 274: 29-35, 1999. Briefly, the peptides were dissolved and stored in glass vials. The assay was performed in sterile 96-well polypropylene microtitre plates were used. Serial dilutions of the peptides to be assayed were performed in 0.01% acetic acid (Fisher) containing 0.2% bovine serum albumin (Boehringer Mannheim GmbH) at 10× the desired final concentration. Ten microlitres of the 10× peptides were added to each well of a 96-well polypropylene plate containing 90 μl of MH media per well. Bacteria were added to the plate from an overnight culture at 2-7×10^5 colony forming units/ml and incubated over night at 37° C. The MIC was taken as the concentration at which no growth was observed.
(§2) Strains. For the killing assay a mini-Tn5-lux mutant in Pseudomonas aeruginosa H103 was used. The strain is called H1001 and contains a fliC::luxCDABE transcriptional fusion resulting in constitutive expression of luciferase. The bacterial strains used for the antimicrobial activity assays included Escherichia coli UB1005 (F-, nalA37, metB1), a wild-type Salmonella enterica ssp. Typhimurium (S. Typhimurium), wild-type Pseudomonas aeruginosa PAO1 strain H103, Enterococcus faecalis ATCC29212, Staphylococcus aureus ATCC25923, and a clinical isolate of Staphylococcus epidermidis obtained from Dr. D. Speert (Department of Medicine, University of British Columbia). Antifungal activity was tested using a lab isolate of Candida albicans obtained from Dr. B. Dill (Department of Microbiology and Immunology, University of British Columbia).
(§3) In addition, the parent peptide Bac2A was included in these studies as a standard. The minimal inhibitory concentrations (MIC) were determined for the important medical pathogens Pseudomonas aeruginosa, Escherichia coli, Salmonella typhimurium, Staphylococcus aureus, Staphylococcus epidermidis, Enterococcus faecaelis, and the yeast Candida albicans in Mueller-Hinton media.

[2] = system: Enterococcus faecalis ATCC29212
Experimental: as §1, §2, §3

[3] = system: Staphylococcus aureus ATCC25923
Experimental: as §1, §2, §3

[4] = system: Staphylococcus epidermidis; conditions: for MIC S. epi.: Table 6
Experimental: as §1, §2, §3

Candida albicans = system: Candida albicans
Experimental: as §1, §2, §3

[5] = system: Pseudomonas aeruginosa PAO1 strain H103; conditions: for MIC P. aeruginosa / MIC P. aeruginosa Muller Hinton Media / MIC P. aeruginosa With 10 μM Mg / MIC P. aeruginosa With 2 mM Mg: PAO1; for MIC P. aerug: Table 6
Experimental: as §1, §2, §3

[6] = system: Pseudomonas aeruginosa strain H1001 fliC::luxCDABE; assay: Luminescence-based assay for the non-cleaved (bound) peptides on cellulose membranes; assay type: cell-based; conditions: for Luminescence at the given time in minutes: 0 / Luminescence at the given time in minutes: 20 / Luminescence at the given time in minutes: 40 / Luminescence at the given time in minutes: 60 / Luminescence at the given time in minutes: 80 / Luminescence at the given time in minutes: 100 / Luminescence at the given time in minutes: 120 / Luminescence at the given time in minutes: 180 / Luminescence at the given time in minutes: 240: cellulose-bound peptide; for Luminescence at the given time in minutes: 0: 0 min; for Luminescence at the given time in minutes: 20: 20 min; for Luminescence at the given time in minutes: 40: 40 min; for Luminescence at the given time in minutes: 60: 60 min; for Luminescence at the given time in minutes: 80: 80 min; for Luminescence at the given time in minutes: 100: 100 min; for Luminescence at the given time in minutes: 120: 120 min; for Luminescence at the given time in minutes: 180: 180 min; for Luminescence at the given time in minutes: 240: 240 min; for Activity Class bound: uncleaved cellulose-bound peptides
Method in brief: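 Peptides remained bound to cellulose spots, which were ethanol-washed and equilibrated in 100 mM Tris pH 7.3. Constitutively lux-expressing P. aeruginosa (OD600 0.35 culture diluted 1:25) added in 10 mM Tris-HCl pH 7.3, 20 mM glucose at 37° C. Luminescence (RLU) followed over 14 time points; peptides binned into six activity classes.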

[7] = system: Pseudomonas aeruginosa strain H1001; assay: Assay for the cleaved (free, soluble) peptides from cellulose support, luminescence killing assay; assay type: cell-based; parameters: key: 1: Peptides showing stronger killing than Bac2A at a 4 to 8-fold higher dilution; Peptides showing stronger killing compared to that of Bac2A at a 4-fold higher dilution; 3: Peptides similar to Bac2A; 4: Peptides similar to Bac2A at the highest concentration but demonstrating weaker killing at a 2-fold dilution; 5: Peptides giving very weak or no killing at a 2-fold dilution; 6: Peptides with weak killing activity at the highest concentration; conditions: for Soluble Class: Table 5, free peptides; for Activity Class Soluble: free (cleaved) peptides, killing relative to Bac2A
Method in brief: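 Cellulose-synthesized peptides (amidated C-terminus, two β-alanines) cleaved by ammonia, released from punched spots 30 min at 37 °C, then serially diluted. P. aeruginosa H1001 (constitutive fliC::luxCDABE) overnight culture diluted 1:500 in LB or 100 mM Tris pH 7.3/20 mM glucose. Killing followed as time-dependent luminescence loss at 37 °C.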

Escherichia coli UB1005 = conditions: Table 6
Experimental: as §1, §2, §3

Substance	MIC S. typhimurium [1] [µg/mL]	MIC E. faecalis ([2]; ATCC29212) [µg/mL]	MIC S. aureus ([3]; ATCC25923) [µg/mL]	MIC S. epidermidis [4] [µg/mL]	MIC C. albicans (Candida albicans) [µg/mL]	MIC P. aeruginosa [5] [µg/mL]	MIC P. aeruginosa Muller Hinton Media [5] [µg/mL]	MIC P. aeruginosa With 10 μM Mg [5] [µg/mL]	MIC P. aeruginosa With 2 mM Mg [5] [µg/mL]	Luminescence at the given time in minutes: 0 [6] [RLU]	Luminescence at the given time in minutes: 20 [6] [RLU]	Luminescence at the given time in minutes: 40 [6] [RLU]	Luminescence at the given time in minutes: 60 [6] [RLU]	MIC S. Typhim. [1]	MIC E. faecalis ([2]; Table 6)	MIC S. aureus ([3]; Table 6)	MIC S. epi. [4]	MIC E. coli (Escherichia coli UB1005)	MIC C. albicans (Candida albicans; Table 6)	MIC P. aerug [5]	other results
VIRRRRILAAVV-NH2 (C-terminus assumed) [Bac044]	113	> 272	250	113	136	> 250	>250	250	>250	5592	7069	5932	5652	–	–	–	–	–	–	–	Luminescence at the given time in minutes: 80 [6]: 5206 RLU; Luminescence at the given time in minutes: 100 [6]: 5008 RLU; Luminescence at the given time in minutes: 120 [6]: 4999 RLU; Luminescence at the given time in minutes: 180 [6]: 5060 RLU; Luminescence at the given time in minutes: 240 [6]: 5195 RLU; Activity Class bound [6]: 6 (Peptides having residual luminescence (lux) values greater than 3000 after 240 min.); Soluble Class [7]: 6; Activity Class Soluble [7]: 6
Bac297: peptide of Table 6 (substitution peptides and truncation variants of Bac2A); sequence in Table 1 (RLARICVIRVAR)	–	–	–	–	–	–	–	–	–	–	–	–	–	n.s.	n.s.	n.s.	n.s.	n.s.	n.s.	n.s.	–
Bac109: peptide of Table 6 (substitution peptides and truncation variants of Bac2A); sequence in Table 1 (RIVVIRVAR)	–	–	–	–	–	–	–	–	–	–	–	–	–	n.s.	n.s.	n.s.	n.s.	n.s.	n.s.	n.s.	–
Bac263: peptide of Table 6 (substitution peptides and truncation variants of Bac2A); sequence in Table 1 (RLAGIVVIRVAR)	–	–	–	–	–	–	–	–	–	–	–	–	–	n.s.	n.s.	n.s.	n.s.	n.s.	n.s.	n.s.	–
Bac118: peptide of Table 6 (substitution peptides and truncation variants of Bac2A); sequence in Table 1 (RIVVIRV)	–	–	–	–	–	–	–	–	–	–	–	–	–	n.s.	n.s.	n.s.	n.s.	n.s.	n.s.	n.s.	–
Bac112: peptide of Table 6 (substitution peptides and truncation variants of Bac2A); sequence in Table 1 (ARIVVIRV)	–	–	–	–	–	–	–	–	–	–	–	–	–	n.s.	n.s.	n.s.	n.s.	n.s.	n.s.	n.s.	–
ILRRVRVRAVAI-NH2 (C-terminus assumed) [Bac022]	272	272	125	136	272	250	250	250	>250	4336	7179	5180	4505	–	–	–	–	–	–	–	Luminescence at the given time in minutes: 80 [6]: 3675 RLU; Luminescence at the given time in minutes: 100 [6]: 3365 RLU; Luminescence at the given time in minutes: 120 [6]: 3044 RLU; Luminescence at the given time in minutes: 180 [6]: 2912 RLU; Luminescence at the given time in minutes: 240 [6]: 2966 RLU; Activity Class bound [6]: 5 (Peptides reducing luminescence (lux) values to between 1500 to 3000 after 240 min.); Soluble Class [7]: 6; Activity Class Soluble [7]: 6
VRLRIRVAVIRA-NH2 (C-terminus assumed) [Bac034]	6	11	5	4	8	10	10	4	16	5305	6449	4160	1454	–	–	–	–	–	–	–	Luminescence at the given time in minutes: 80 [6]: 390 RLU; Luminescence at the given time in minutes: 100 [6]: 157 RLU; Luminescence at the given time in minutes: 120 [6]: 64 RLU; Luminescence at the given time in minutes: 180 [6]: 60 RLU; Luminescence at the given time in minutes: 240 [6]: 63 RLU; Activity Class bound [6]: 3 (Peptides similar to Bac2A resulting in lux values of less than 500 after 240 min.); Soluble Class [7]: 1; Activity Class Soluble [7]: 1
Bac241: peptide of Table 6 (substitution peptides and truncation variants of Bac2A); sequence in Table 1 (RLERIVVIRVAR)	–	–	–	–	–	–	–	–	–	–	–	–	–	n.s.	n.s.	n.s.	n.s.	n.s.	n.s.	n.s.	–
RAVAVIIRLRRV-NH2 (C-terminus assumed) [Bac014]	11	11	13	8	8	33	33	16	63	5233	8217	7835	7867	–	–	–	–	–	–	–	Luminescence at the given time in minutes: 80 [6]: 8100 RLU; Luminescence at the given time in minutes: 100 [6]: 8931 RLU; Luminescence at the given time in minutes: 120 [6]: 8956 RLU; Luminescence at the given time in minutes: 180 [6]: 10738 RLU; Luminescence at the given time in minutes: 240 [6]: 12876 RLU; Soluble Class [7]: 1; Activity Class Soluble [7]: 1
